For the experiment, the system named is NK Falkone 2015 corn seeds. Kind of experiment: Corn seed germination under cold stress (Example B1). The format is in vivo. As to conditions: Zea mays, cold stress 15° C.; for change in vivo at 2 µM: Rate 2 μM; for change in vivo at 10 µM: Rate 10 μM; for change in vivo at 50 µM: Rate 50 μM; for change in vivo at 250 µM: Rate 250 μM; for change in vivo at 0.4 µM: Rate 0.4 μM. As to the method: The effect of compounds of formula (I) on the germination of NK Falkone 2015 corn seeds under cold stress was evaluated as follows. NK Falkone corn seeds were sorted by size using 2 sieves, one excluding very big seeds and the other with round holes of 8 to 9 mm diameter. The seeds retained by the latter sieve were used for the germination test. The corn seeds were placed in 24 well plates (each plate was considered as one experimental unit or replicate). Germination was initiated by the addition of 250 μl of distilled water containing 0.5% DMSO per well as a means for compound solubilization. 8 replicates (ie, 8 plates) were used for each treatment characterization. Plates were sealed using seal foil (Polyolefin Art. Nr. 900320) from HJ-BIOANALYTIK. All plates were placed horizontally on trolleys in a climatic chamber at 15° C. The experiment was laid out in a completely randomized design in climatic chamber with 75% Relative Humidity. Foils were pierced, one hole per well using a syringe after 72 hours for experiments performed at 15° C.
Germination was followed over time by taking photographs at different time points. Image analysis was performed automatically with a macro which was developed using the Image J software. A dynamic analysis of germination was carried out by fitting a logistic curve. Three parameters were calculated from the logistic curve: the T50; the slope and the plateau. All three parameters have a high agronomical relevance and are key requirements to ensure a good early crop-establishment. All the values are expressed as percentages compared to an untreated control. All the three parameters are calculated considering 8 replicates and the kinetic parameters are separately determined for each germination curve. Data in bold indicate germination enhancing statistically significant differences between treated seeds and untreated control (p<0.05). The T50 corresponds to the time needed for half of the seed population to germinate. Higher negative %-values indicate faster germination. The slope indicates how synchronous the germination of the seed population is. Positive values indicate steeper curve; the steeper the curve, the better and more uniform the germination is.

Setting [1] is: slope of logistic germination curve, read-out: Slope (% vs control).
[2] abbreviates: time for half of seeds to germinate, control T50 = 110 hours, read-out: T50 (% vs control).

In patent publication US11136292B2, “Plant growth regulator compounds” (SYNGENTA PARTICIPATIONS AG, priority 2016, dated 2021) one finds change in vivo data, which are given here for 17 molecules.

Each structure is given as a SMILES string. Read-outs that look alike come from different tables or passages of the source.

On to `CCOC(=O)/C(=C/OC1C=C(C)C(=O)O1)C1CCc2ccccc21` (stereo not shown) [Compound I-1], for which, under setting [1], the change in vivo at 2 µM was found to be 8.1%, the change in vivo at 10 µM was 10%, the change in vivo at 50 µM came to 27.9% and the change in vivo at 250 µM was determined as 142%. Also, under setting [2], the change in vivo at 2 µM was -0.5%, the change in vivo at 10 µM turned out to be 1.6%, the change in vivo at 50 µM was -2.8% and the change in vivo at 250 µM is -7.2%.
For the molecule `CCOC(=O)/C(=C/OC1OC(=O)C(C)=C1C)C1CCc2ccccc21` (stereo not shown) [Compound I-2], under setting [1], the change in vivo at 2 µM is -11.8%, the change in vivo at 10 µM stood at 18.1%, the change in vivo at 50 µM was 47% and the change in vivo at 250 µM turned out to be 121%. Further, under setting [2], the change in vivo at 2 µM was 2.3%, the change in vivo at 10 µM was -3%, the change in vivo at 50 µM was -6.2% and the change in vivo at 250 µM was -10.1%.
For `CCOC(=O)/C(=C/OC1C=C(C)C(=O)N1c1cc(C(F)(F)F)cc(C(F)(F)F)c1)C1CCc2ccccc21` (stereo not shown) [Compound I-7], under setting [1], the change in vivo at 2 µM was determined as 63.9%, the change in vivo at 10 µM worked out at 69.8%, the change in vivo at 50 µM is 78.8% and the change in vivo at 250 µM was found to be 11.3%. Also, under setting [2], the change in vivo at 2 µM is -3.4%, the change in vivo at 10 µM is -3.5%, the change in vivo at 50 µM was -6.6% and the change in vivo at 250 µM was -1.8%.
As to `COC(=O)/C(=C/OC1C=C(C)C(=O)O1)C1CCc2ccccc21` (stereo not shown) [Compound I-10], under setting [1], the change in vivo at 2 µM was found to be 8.2%, the change in vivo at 10 µM was determined as 10.7%, the change in vivo at 50 µM worked out at 30.3% and the change in vivo at 250 µM was 82.5%. Also, under setting [2], the change in vivo at 2 µM was -0.9%, the change in vivo at 10 µM was -0.8%, the change in vivo at 50 µM was -3.3% and the change in vivo at 250 µM was -7.4%.
As for `COC(=O)/C(=C/OC1OC(=O)C(C)=C1C)C1CCc2ccccc21` (stereo not shown) [Compound I-11], under setting [1], the change in vivo at 2 µM was 11.4%, the change in vivo at 10 µM turned out to be 7.4%, the change in vivo at 50 µM was 20.1% and the change in vivo at 250 µM came out at 89.6%. Further, under setting [2], the change in vivo at 2 µM was -1%, the change in vivo at 10 µM was found to be 0.2%, the change in vivo at 50 µM is -5.1% and the change in vivo at 250 µM was -6.9%.
With `CNC(=O)/C(=C/OC1C=C(C)C(=O)O1)C1CCc2ccccc21` (stereo not shown) [Compound I-37-1], under setting [1], the change in vivo at 2 µM is 10.8%, the change in vivo at 10 µM is -15.7%, the change in vivo at 50 µM is 5.2% and the change in vivo at 250 µM was found to be 51.7%. Under setting [2], the change in vivo at 2 µM was -1.3%, the change in vivo at 10 µM was -2.5%, the change in vivo at 50 µM was -2.6% and the change in vivo at 250 µM was -4.6%.
Take `CNC(=O)/C(=C/OC1C=C(C)C(=O)N1c1cc(C(F)(F)F)cc(C(F)(F)F)c1)C1CCc2ccccc21` (stereo not shown) [Compound I-55-1]: under setting [1], the change in vivo at 2 µM is -8.1%, the change in vivo at 10 µM stood at 3.8%, the change in vivo at 50 µM was 61.1% and the change in vivo at 250 µM is 89.8%. Under setting [2], the change in vivo at 2 µM came to 1.7%, the change in vivo at 10 µM was -1.4%, the change in vivo at 50 µM is -6.8% and the change in vivo at 250 µM was -10.6%.
For the molecule `CCOC(=O)/C(=C/OC1C=C(C)C(=O)O1)C1CCc2cc(OC)c(OC)cc21` (stereo not shown) [Compound I-64], under setting [1], the change in vivo at 2 µM stood at 1.1%, the change in vivo at 10 µM was -1.6%, the change in vivo at 50 µM was determined as 27.9% and the change in vivo at 250 µM came out at 83.8%. Also, under setting [2], the change in vivo at 2 µM is -1.4%, the change in vivo at 10 µM is -3.2%, the change in vivo at 50 µM was -4.6% and the change in vivo at 250 µM was -10.7%.
With `CCOC(=O)/C(=C/OC1OC(=O)C(C)=C1C)C1CCc2cc(OC)c(OC)cc21` (stereo not shown) [Compound I-65], under setting [1], the change in vivo at 2 µM worked out at 1%, the change in vivo at 10 µM is 18.8%, the change in vivo at 50 µM was 23% and the change in vivo at 250 µM stood at 123%. Moreover, under setting [2], the change in vivo at 2 µM was -0.9%, the change in vivo at 10 µM is -3.1%, the change in vivo at 50 µM was -2.6% and the change in vivo at 250 µM is -12.6%.
For the molecule `CCOC(=O)/C(=C/OC1C=C(C)C(=O)O1)C1CCc2cc3c(cc21)OCO3` (stereo not shown) [Compound I-66], under setting [1], the change in vivo at 2 µM was found to be 22.6%, the change in vivo at 10 µM is 2.9%, the change in vivo at 50 µM stood at 34.5% and the change in vivo at 250 µM came to 31.6%. Further, under setting [2], the change in vivo at 2 µM was -5.2%, the change in vivo at 10 µM is -2.9%, the change in vivo at 50 µM was -5.1% and the change in vivo at 250 µM is -5.8%.
For the molecule `CCOC(=O)/C(=C/OC1C=C(C)C(=O)O1)C1CCc2c(C)cccc21` (stereo not shown) [Compound I-68], under setting [1], the change in vivo at 2 µM is 23.4%, the change in vivo at 10 µM was found to be 3.8%, the change in vivo at 50 µM stood at 44.7% and the change in vivo at 250 µM came out at 113%. Further, under setting [2], the change in vivo at 2 µM is -1.2%, the change in vivo at 10 µM is -0.6%, the change in vivo at 50 µM is -5.7% and the change in vivo at 250 µM is -6.8%.
For `CCOC(=O)/C(=C/OC1C=C(C)C(=O)O1)C1CCc2c1cccc2C(F)(F)F` (stereo not shown) [Compound I-70], under setting [1], the change in vivo at 2 µM is 9%, the change in vivo at 10 µM came to 18.4%, the change in vivo at 50 µM was found to be 87.9% and the change in vivo at 250 µM was 115%. In addition, under setting [2], the change in vivo at 2 µM is -2.5%, the change in vivo at 10 µM was -0.2%, the change in vivo at 50 µM was -6.8% and the change in vivo at 250 µM is -8.6%.
For the molecule `CCOC(=O)/C(=C/OC1OC(=O)C(C)=C1C)C1CCc2ccc(C(F)(F)F)cc21` (stereo not shown) [Compound I-73], under setting [1], the change in vivo at 2 µM was -1.1%, the change in vivo at 10 µM was found to be 14.2%, the change in vivo at 50 µM came out at 57.8% and the change in vivo at 250 µM was 54.1%. Under setting [2], the change in vivo at 2 µM was -3.5%, the change in vivo at 10 µM is -6.3%, the change in vivo at 50 µM is -7.8% and the change in vivo at 250 µM was -9.2%.
As to `CCOC(=O)/C(=C/OC1OC(=O)C(C)=C1C)C1CCCc2ccccc21` (stereo not shown) [Compound I-75], under setting [1], the change in vivo at 2 µM stood at 4.9%, the change in vivo at 10 µM came to 5.6%, the change in vivo at 50 µM is 58.4% and the change in vivo at 250 µM is 44.2%. Also, under setting [2], the change in vivo at 2 µM is -3.5%, the change in vivo at 10 µM is -2.6%, the change in vivo at 50 µM is -6.5% and the change in vivo at 250 µM was -5%.
As to `CCOC(=O)/C(=C/OC1C=C(C)C(=O)O1)C1Cc2ccccc21` (stereo not shown) [Compound I-76], under setting [1], the change in vivo at 0.4 µM was -5.6%, the change in vivo at 2 µM is -5%, the change in vivo at 10 µM was determined as 50.6% and the change in vivo at 50 µM stood at 122%. Further, under setting [2], the change in vivo at 0.4 µM was -0.5%, the change in vivo at 2 µM was -0.7%, the change in vivo at 10 µM is -6.4% and the change in vivo at 50 µM is -8.8%.
With `CCOC(=O)/C(=C/OC1OC(=O)C(C)=C1C)C1CCc2ccsc21` (stereo not shown) [Compound I-83], under setting [1], the change in vivo at 2 µM was found to be 6.5%, the change in vivo at 10 µM stood at 34.1%, the change in vivo at 50 µM was determined as 32.6% and the change in vivo at 250 µM worked out at 157%. Further, under setting [2], the change in vivo at 2 µM is -3%, the change in vivo at 10 µM is -2.2%, the change in vivo at 50 µM is -4.8% and the change in vivo at 250 µM was -8.6%.
`CCOC(=O)/C(=C/OC1C=C(C)C(=O)O1)C1CCC[C@@]2(C)CCC12` (stereo partly shown) [Compound I-86]: under setting [1], the change in vivo at 2 µM was 17.1%, the change in vivo at 10 µM is 20.2%, the change in vivo at 50 µM is 138% and the change in vivo at 250 µM is 150%. For the same molecule, under setting [2], the change in vivo at 2 µM was 0.2%, the change in vivo at 10 µM is -2.7%, the change in vivo at 50 µM is -9.7% and the change in vivo at 250 µM was -11.2%.
